Measurements as given in patent publication US10611797B2, “Peptide having anticancer activity, and pharmaceutical composition and dietary supplement composition for preventing and treating cancer, both of which contain same as active ingredient” (IUCF-HYU (INDUSTRY-UNIVERSITY COOPERATION FOUNDATION …, priority 2015, dated 2020).
Read-outs that look alike come from different tables or passages of the source.

What was measured:
[1] = test system: normal cell lines (MCF10A, BEAS2B, hMSCs, mouse primary T cells); test: Microscopic observation of growth inhibition and apoptosis, normal cell lines; conditions: 2 μM, 48 h
Method: (§1) Liver cancer cell lines (HepG2, Hep3B), a human embryonic kidney cell line (293T), breast cancer cell lines (MCF-7, MDA-MB-231), blood tumor cell lines (K562, HEL, HL60), glioblastoma cell lines (U251, U373MG, U87MG), a mammary epithelial cell line (MCF10A), a lung epithelial cell line (BEAS2B), human mesenchymal stem cells (hMSCs), and mouse primary T cells (resting and activated T cells) were inoculated into 96-well plates at a density of 3,000 cells/well, supplemented with 50 μl of culture solution, and cultured at 37° C. and 5% CO2 for 1 h. […] After completion of the culture, cells were observed under an inverted phase contrast microscope and their morphological changes were imaged.

[2] = test system: human embryonic stem cells (hESCs, H9); test: MTT cell viability, human embryonic stem cells co-cultured with MEFs; conditions: increasing concentrations; co-culture with MEFs
Text: MEF cells labeled with rhodamine were often used to distinguish them from hESC-derived cells.

[3] = test system: cancer cell lines (HepG2, Hep3B, 293T, MCF-7, MDA-MB-231, K562, HEL, HL60, U251, U373MG, U87MG); test: Microscopic observation of growth inhibition and apoptosis, cancer cell lines; type: cell-based, human; conditions: 2 μM, 48 h
Method: as §1

MCF10A cell line = test: Electron microscopy of cell morphology, MCF10A; conditions: 2 μM, 24 and 48 h
Method: 1.5×10^6 cells of MDA-MB-231 cell line and 5×10^5 cells of MCF10A cell line were inoculated into 100 mm dishes. […] After culture for 24 and 48 h, cells were collected. The culture solution was centrifuged and surface adherent cells were collected by trypsin treatment. The collected cells were washed once with physiological saline. The cell sediment was directly treated twice with 2.5% aqueous glutaraldehyde solution (each for 10 min). Samples for electron microscopy were prepared and imaged in accordance with general methods.

[4] = test system: BEAS2B and MCF10A normal epithelial cell lines; test: MTT cell viability / IC50, normal epithelial control cell lines
Method: (§2) Liver cancer cell lines (HepG2, Hep3B) were inoculated into 96-well plates at a density of 3000 cells/well, and then 50 μl of culture solution was added thereto. Cells were cultured at 37° C. and 5% CO2 for 1 h. […] Cells were cultured at 37° C. and 5% CO2 for 24, 48, 72, and 96 h. After completion of the culture, the remaining culture solution was removed from the well plates, the cultures were diluted with MTT solution (3-(4,5-dimethylthiazol-2-yl)-2,5-diphenyltetrazole bromide) to a final density of 500 μg/ml, and cells were cultured at 37° C. and 5% CO2 for 3 h. The remaining MTT solution was removed and 150 μl of dimethyl sulfoxide (DMSO) was added. The reaction was carried out at room temperature for 20 min. After completion of the reaction, absorbance was measured using a microplate reader.

[5] = test system: human mesenchymal stem cells (hMSC); test: MTT cell viability, human mesenchymal stem cells; conditions: increasing concentrations
MDA-MB-231 cell line = test: MTT assay of FITC-conjugated peptides in MDA-MB-231; type: cell-based, human; conditions: 0, 0.5, 1, 2, 3, 10 μM, 96 h
CP2c [6] = test: Direct ELISA of GST-fusion mutant CP2c proteins binding to peptide; conditions: 19 Ala mutants of CP2c 306-396 region; detected with biotin-tagged Peptide 5-2CB
Text: To support this assumption, a CP2c protein region with which Peptide 5-2C interacts and amino acids in the region directly binding to Peptide 5-2C need to be identified. Thus, an attempt was made to obtain mutant CP2c proteins in which polar amino acids present in the CP2c region binding with Peptide 5 shown in FIG. 1 were substituted with Ala and analyze the binding of the mutant CP2c proteins with Peptide 5-2C by enzyme-linked immunosorbent assay (ELISA). To facilitate this analysis, Peptide 5-2CB was synthesized in which biotin tag is bonded to the C-terminal Pro residue of Peptide 5-2C. To confirm whether Peptide 5-2CB induces cancer cell-specific growth interruption and apoptosis, like Peptide 5-2C, MTT assay was conducted on two different batches of Peptide 5-2CB in MDA-MB-231 cell line and MCF7 cell line by the same method as in Example 5.1. IC50 values were also calculated from the results of MTT assay. To obtain 19 mutant CP2c proteins in which polar amino acids present in the CP2c region binding with Peptide 5-2C were substituted with Ala, oligonucleotides having sequences encoding the corresponding mutant amino acids were synthesized and site-directed mutagenesis was carried out. The base sequences encoding the mutant CP2c genes were cloned into the pGEX4 vector and mutant GST-fusion CP2c proteins were purified using beads bound with antibody against GST-tag. […]

CP2c [7] = molecular target: T1, CP2c (Mus musculus, UniProt Q9ERA0); test: DNA immunoprecipitation (DIP) assay of CP2c-DNA binding; conditions: 0.2, 0.5, and 1 μg peptide; MEL nuclear extract; α-globin promoter probe
T1 construct: 5 μg of the nuclear extract and an [α-32p] dCTP-labeled DNA probe; endogenous in cells; host or cells: MEL (murine erythroid leukemia) cells, HMBA-differentiated, nuclear extract
T1 sequence (Q9ERA0 1-502): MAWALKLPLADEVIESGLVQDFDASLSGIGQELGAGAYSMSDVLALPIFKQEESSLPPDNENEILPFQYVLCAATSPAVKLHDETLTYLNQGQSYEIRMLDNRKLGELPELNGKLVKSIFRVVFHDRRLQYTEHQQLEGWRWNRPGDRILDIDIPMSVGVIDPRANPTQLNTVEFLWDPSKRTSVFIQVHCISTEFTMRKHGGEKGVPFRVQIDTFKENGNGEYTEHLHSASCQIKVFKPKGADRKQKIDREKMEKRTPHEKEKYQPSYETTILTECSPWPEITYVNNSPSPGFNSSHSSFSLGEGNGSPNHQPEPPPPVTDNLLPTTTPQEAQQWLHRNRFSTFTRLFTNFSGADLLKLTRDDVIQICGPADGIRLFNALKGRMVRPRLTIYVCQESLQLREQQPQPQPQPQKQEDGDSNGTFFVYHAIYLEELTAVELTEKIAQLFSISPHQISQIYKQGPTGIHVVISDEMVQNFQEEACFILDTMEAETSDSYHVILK
Method: To analyze whether the five peptides identified in Example 1.1 bind to CP2c in cells to affect the ability of CP2c to bind to DNA, DNA immunoprecipitation (DIP) assay was performed as disclosed in another preceding research conducted by the present inventors (Kim et al., A DNA immunoprecipitation assay used in quantitative detection of in vitro DNA-protein complex binding, Analytical Biochemistry. 2013; 441: 147-151).
In summary, the differentiation of a murine erythroid leukemia (MEL) cell line was induced by treatment with 5 mM hexamethylene bisacetamide (HMBA) and, on day 2 after differentiation, a cellular nuclear extract was separated. […]
Subsequently, 5 μg of the nuclear extract and an [α-32p] dCTP-labeled DNA probe (a sequence corresponding to the common CP2c binding site present in mouse α-globin promoter and between −156 and −124 in the start codon of the α-globin gene, see the paper of Kim et al. for details of the sequence) were allowed to react with a binding buffer (4% glycerol, 10 mM Tris-HCl, 1 mM DTT, 1 mM EDTA, and 0.1% NP-40) for 15 min, and gradually increasing amounts (0.2, 0.5, and 1 μg) of the identified CP2c binding peptides (Peptide 5, Peptide 8, Peptide 13, Peptide 21, and Peptide 31) were added thereto. […] The CP2c protein was removed from the DNA probe and the remaining amount of the DNA probe was measured using a scintillation counter. […]

[8] = test system: 293T and HepG2 cell lines; test: MTT cell viability with Peptide 5-2D, 293T and HepG2; type: cell-based, human; conditions: increasing concentrations
Method: as §2

[9] = test system: human blood cancer cell lines (U937, Jurkat, HL60, HEL); test: MTT cell viability with Peptide 5-2D, human blood cancer cell lines; type: cell-based; conditions: increasing concentrations
Method: as §2

[10] = test system: glioblastoma cell lines (U343, U87MG); test: MTT cell viability with Peptide 5-2D, glioblastoma cell lines; type: cell-based, human; conditions: increasing concentrations
Method: as §2

[11] = test system: breast cancer cell lines (MCF7, MDA-MB-231); test: MTT cell viability, breast cancer cell lines; type: cell-based, human; conditions: increasing concentrations
Method: as §2

[12] = test system: BEAS2B and MCF10A normal epithelial cell lines
Method: as §2

[13] = test system: colon cancer cell lines (HCT116, HT29); test: MTT cell viability with Peptide 5-2D, colon cancer cell lines; type: cell-based, human; conditions: increasing concentrations
Method: as §2

## CCOc1ccccc1C1CC(=O)Nc2cc3c(cc21)OCO3 (centres unmarked) [FQI1, Factor Quinolinone Inhibitor 1]
[1]
  effect on normal cell lines (microscopy): inhibited the growth of the normal cell lines
[2]
  cytotoxicity (MTT) in hESCs: concentration-dependent cytotoxicity
[3]
  growth inhibition and apoptosis induction of cancer cell lines (microscopy): inhibited the growth of the normal cell lines as well as the cancer cell lines in a concentration-dependent manner and induced apoptosis
MCF10A cell line
  intracellular structural abnormalities in MCF10A (electron microscopy): considerable nuclear disruption was observed at 48 h
[4]; 48 h, MTT
  growth inhibition and apoptosis induction of normal control cell lines (IC50 calculation): inhibited cell growth and induced apoptosis
[4]; increasing concentrations up to 10 μM
  cytotoxicity (MTT) in MCF10A and BEAS2B: concentration-dependent cytotoxicity
[5]
  cytotoxicity (MTT) in hMSC: concentration-dependent cytotoxicity

## FITC-iRGD: FITC fluorescently labeled iRGD peptide (CRGDKGPDC)
MDA-MB-231 cell line
  cell growth (MTT) in MDA-MB-231: only the FITC-conjugated Peptide 5-2C inhibited cell growth

## NYPQRP [Peptide 5-2]
CP2c [6]
  CP2c amino acids important for peptide binding: E332, R339, R341 and R347 amino acid are important for binding to Peptide 5-2
CP2c [7]
  inhibition of CP2c-DNA binding (DIP assay): specifically inhibited the binding between CP2c and DNA

## dNP2 peptide sequence (KIKKVKKKGRKGSKIKKVKKKGRKGG) linked to the N-terminal Asn residue of Peptide 5-2 [Peptide 5-2D]
[8]
  relative viability (MTT), 293T and HepG2, compared with Peptide 5-2C: inhibited the growth of the human embryonic kidney cancer cell line and liver cancer cell line and efficiently induced apoptosis, similarly to Peptide 5-2C
[9]
  relative viability (MTT), U937, Jurkat, HL60, HEL, compared with Peptide 5-2C: inhibited the growth of the human embryonic kidney cancer cell line and the liver cancer cell line and efficiently induced apoptosis, similarly to Peptide 5-2C
[10]
  relative viability (MTT), U343 and U87MG, compared with Peptide 5-2C: inhibited the growth of the glioblastoma cell lines and efficiently induced apoptosis, similarly to Peptide 5-2C
[11]
  relative viability (MTT), breast cancer cell lines, compared with Peptide 5-2C: inhibited the growth of the breast cancer cell lines and efficiently induced apoptosis, similarly to Peptide 5-2C
[12]
  growth inhibition and apoptosis induction of normal control cell lines (IC50 calculation): did not substantially affect the growth inhibition of the normal control cell lines and the induction of apoptosis
  relative viability (MTT), MCF10A and BEAS2B, compared with Peptide 5-2C: did not affect the growth of the mammary epithelial cell line and the lung epithelial cell line and apoptosis, similarly to Peptide 5-2C
[13]
  relative viability (MTT), HCT116 and HT29, compared with Peptide 5-2C: inhibited the growth of the glioblastoma cell lines and efficiently induced apoptosis, similarly to Peptide 5-2C
